Source: patent publication US20240124389A1, “COMPOUND OR SALT THEREOF, LIPID PARTICLES, AND PHARMACEUTICAL COMPOSITION” (FUJIFILM Corporation, priority 2021, published 2024)

What was measured:
EPO mRNA = assay: mRNA encapsulation rate of EPO mRNA-encapsulating lipid particles; assay type: physicochemical; conditions: aminolipid 50 / DOPE 10 / cholesterol 38.5 / DMG-PEG2000 1.5 mol %, lipid/nucleic acid 64 wt/wt
Protocol: (§1) The compounds described in Table 1, the neutral lipid, cholesterol (product name: Cholesterol HP; NIPPON FINE CHEMICAL CO., LTD.), and 1,2-dimyristoyl-rac-glycero-3-(methylpolyoxyethylene 2000) (hereinafter, called DMG-PEG2000) (product name: SUNBRIGHT® GM-020; NOF corporation) were dissolved in ethanol at a molar ratio in Table 1 such that the total lipid concentration became 20 mmol/L, thereby obtaining an oil phase.
(§2) As the neutral lipid, 1,2-distearoyl-sn-glycero-3-phosphocholine (product name: COATSOME® MC-8080; NOF corporation) (hereinafter, DSPC), or L-α-dioleoyl phosphatidylethanolamine (Hereinafter, DOPE) (product name: COATSOME® ME-8181; NOF corporation), or 1,2-dioleoyl-sn-glycero-3-phosphocholine (hereinafter, DOPC) (product name: COATSOME® MC-8181; NOF corporation) was used.
(§3) EPO mRNA (product name: CleanCap EPO mRNA (5moU); TriLink) was diluted with 50 mmol/L citrate buffer having a pH 4 such that the weight ratio of total lipid concentration to mRNA concentration is about 16:1 to 64:1, thereby obtaining a water phase. Then, the water phase and the oil phase were mixed together using NanoAssemblr (Precision NanoSystems) such that the volume ratio of water phase:oil phase was 3:1, and the mixed solution was 1.5-fold diluted with phosphate buffered saline (PBS), thereby obtaining a dispersion liquid of mRNA lipid particles. The dispersion liquid was dialyzed with a 10% aqueous sucrose solution using a dialysis cassette (Slide-A-Lyzer G2, MWCO: 10 kD, Thermo Fisher Scientific) to remove ethanol, thereby obtaining EPO mRNA-encapsulating lipid particles.
15 to 30 μL of a 3 mol/L aqueous sodium acetate solution and 4.5 to 9 μL of glycogen were added to 30 to 60 μL of the lipid particles retaining mRNA, and 0.75 to 1.5 mL of ethanol was added thereto, so that only the nucleic acids were precipitated while the lipid was dissolved. Then, the supernatant was removed by centrifugation. The precipitates were air-dried for 15 minutes or longer, then water was added thereto to redissolve the precipitates, and the concentration thereof was measured using Nanodrop NF1000 (Thermo Fisher Scientific), thereby quantifying the total mRNA concentration.
The mRNA concentration was quantified using a Quant-iT RiboGreen RNA Assay Kit (Thermo Fisher Scientific) according to the protocol. First, a 20×TE buffer included in the above-described kit was diluted with water, thereby obtaining a 1×TE buffer. TE represents Tris/EDTA (ethylenediaminetetraacetic acid). In order to quantify only mRNA in the outer water phase, the dispersion liquid of lipid particles retaining mRNA was 10,000-fold diluted with the 1×TE buffer. 100 μL of the 10,000-fold diluted dispersion liquid of lipid particles was put into a 96-well plate, then 100 μL of a RiboGreen reagent (reagent included in the Quanti-iT Ribogreen RNA Assay Kit described above) 2,000-fold diluted with the 1×TE buffer was added to a sample, and fluorescence (excitation wavelength: 485 nm, fluorescence wavelength: 535 nm) was measured using a plate reader Infinite F200 (TECAN), thereby quantifying the mRNA concentration in the outer water phase.
By using the quantification results of the total mRNA concentration and the mRNA concentration in the outer water phase that were obtained through the above steps, the mRNA encapsulation rate of the mRNA lipid particles was calculated according to the following Equation.
mRNA encapsulation rate (%)=(total mRNA concentration-mRNA concentration in outer water phase)/total mRNA concentration×100

human EPO = assay: Measurement of EPO enzyme activity (EPO protein in blood plasma of mice after intravenous administration of EPO mRNA lipid particles); assay type: in vivo; conditions: C57BL/6J mice, tail-vein i.v., mRNA 0.1 mg/kg, plasma 20 to 24 hours; aminolipid 50 / DOPE 10 / cholesterol 38.5 / DMG-PEG2000 1.5 mol %; lipid/nucleic acid 64 wt/wt
Protocol: as §1, §2, §3
The dispersion liquid of mRNA lipid particles prepared in above-described <Preparation of EPO mRNA-encapsulating lipid particles> was tail-vein intravenously administered to C57BL/6J mice at a mRNA dosage of 0.1 mg/kg. 20 to 24 hours after the administration, blood was collected from the caudal vena cava, thereby obtaining blood plasma. The human EPO enzyme activity was quantified by using the obtained blood plasma and ab119522 Erythropoietin (EPO) Human Elisa Kit (Abcam.plc). The quantitative value is described as a relative amount of EPO protein in a case where Comparative Example 1 is 1.

[1] = Particle size of EPO mRNA-encapsulating lipid particles; assay type: physicochemical; conditions: aminolipid 50 / DOPE 10 / cholesterol 38.5 / DMG-PEG2000 1.5 mol %, lipid/nucleic acid 64 wt/wt
Protocol: as §1, §2, §3
The particle size of the mRNA-encapsulating lipid particles was measured by 10-fold diluting the dispersion liquid of lipid particle with phosphate buffered saline (PBS) using Zeta-potential & Particle size Analyzer ELS-Z2 (Otsuka Electronics Co., Ltd.).

Nucleic acid encapsulation rate (EPO mRNA) [%] | Particle size [1] [nm] | SMILES | Relative amount of EPO protein (with respect to Comparative Example 1) (human EPO)
88.8 | 132.8 | CCCCCCCCOC(=O)CCCC(CCCC(=O)OCCCCCCCC)OC(=O)OCCN(CCOC(=O)OC(CCCC(=O)OCCCCCCCC)CCCC(=O)OCCCCCCCC)CCN(CC)CC [Example 33, Dioctyl 11-(2-(diethylamino)ethyl)-5,17-bis(4-(octyloxy)-4-oxobutyl)-7,15-dioxo-6,8,14,16-tetraoxa-1 1-azahenicosanedioate] | 2.70
98.6 | 73.2 | CCCCCCC(CCCC(=O)OCC(CCCCC)CCCCC)OC(=O)OCCN(CCOC(=O)OC(CCCCCC)CCCC(=O)OCC(CCCCC)CCCCC)CCN(C)C (stereo not drawn) [Example 11, Bis(2-pentylheptyl) 11-(2-(dimethylamino)ethyl)-5,17-dihexyl-7,15-dioxo-6,8,14,16-tetraoxa-11-azahenicosanedio ate] | 2.70
99.8 | 101.5 | CCCCCCC(CCCC(=O)OCCC12CC3CC(CC(C3)C1)C2)OC(=O)OCCN(CCOC(=O)OC(CCCCCC)CCCC(=O)OCCC12CC3CC(CC(C3)C1)C2)CCN(CC)CC (stereo not drawn) [Example 27, Bis (2-(((3r,5r,7r)-adamantan-1-yl)ethyl)11-(2-(diethylamino)ethyl)-5,17-dihexyl-7,15-dioxo-6,8,1 4,16-tetraoxa-11-azahenicosanedioate] | 3.60
100.0 | 133.4 | CCCCCC(CCCCC)COC(=O)CCCC(CC)OC(=O)OCCN(CCOC(=O)OC(CC)CCCC(=O)OCC(CCCCC)CCCCC)CCN(CC)CC (stereo not drawn) [Example 20, Bis(2-pentylheptyl) 11-(2-(diethylamino)ethyl)-5,17-dietyl-7,15-dioxo-6,8,14,16-tetraoxa-11-azahenicosanedioate] | 3.22
97.5 | 76.8 | CCCCCCC(CCCC(=O)OCC(CCCCC)CCCCC)OC(=O)OCCCN(CCCOC(=O)OC(CCCCCC)CCCC(=O)OCC(CCCCC)CCCCC)CCN(CC)CC (stereo not drawn) [Example 15, Bis(2-pentylheptyl) 12-(2-(diethylamino)ethyl)-5,19-dihexyl-7,17-dioxo-6,8,16,18-tetraoxa-12-azatricosanedioate] | 1.92
97.3 | 69.4 | CCCCCCC(CCCC(=O)OCC(CCCCC)CCCCC)OC(=O)OCCCCN(CCCCOC(=O)OC(CCCCCC)CCCC(=O)OCC(CCCCC)CCCCC)CCN(CC)CC (stereo not drawn) [Example 16, Bis(2-pentylheptyl) 13-(2-(diethylamino)ethyl)-5,21-dihexyl-7,19-dioxo-6,8,18,20-tetraoxa-13-azapentacosanedio ate] | 2.53
97.5 | 76.8 | CCCCCC(CCCCC)COC(=O)CCCC(CCCCC)OC(=O)OCCN(CCOC(=O)OC(CCCCC)CCCC(=O)OCC(CCCCC)CCCCC)CCN(CC)CC (stereo not drawn) [Example 23, Bis(2-pentylheptyl) 11-(2-(diethylamino)ethyl)-7,15-dioxo-5,17-dipentyl-6,8,14,16-tetraoxa-11-azahenicosanedioate] | 3.60

SMILES | Nucleic acid encapsulation rate (EPO mRNA) [%] | Particle size [1] [nm] | Relative amount of EPO protein (with respect to Comparative Example 1) (human EPO)
CCCCCC(CCCCC)COC(=O)CCCC(C)OC(=O)OCCN(CCOC(=O)OC(C)CCCC(=O)OCC(CCCCC)CCCCC)CCN(CC)CC (stereo not drawn) [Example 19, Bis(2-pentylheptyl) 11-(2-(diethylamino)ethyl)-5,17-dimethyl-7,15-dioxo-6,8,14,16-tetraoxa-11-azahenicosanedio ate] | 100.0 | 147.0 | 1.26
